Reference: US8809377B2, “Deubiquitinase inhibitors and methods for use of the same” (The Regents of the University of Michigan, priority 2010, dated 2014)
Entries after “also recorded” stand apart in the source; their conditions may differ.

Assays:
pStat5 = assay: Western blot of pStat5; format: cell-based; conditions: BV-173 cells, 5 μM, 1 or 2 hours
Procedure: Total cell lysates were prepared by boiling and sonicating cell pellets in 1× Laemmli reducing sample buffer. To prepare detergent soluble and insoluble fractions, cells were lysed in cold isotonic lysis buffer [10 mM Tris-HCl (pH 7.5), 0.5% Triton X-100, 150 mM NaCl along with Mini-Complete and PhosSTOP] for 15 min on ice and centrifuged 10 min at 20,000 RCF. The clarified supernatant was used as the detergent soluble cell fraction. The residual pellet was washed and extracted in Laemmli reducing sample buffer and briefly sonicated to derive the detergent insoluble fraction. Equal volumes of cellular lysate or equal protein amounts were electrophoresed on SDS-PAGE gels and transferred to nitrocellulose membranes (Whatmann, Dassel, Germany). Proteins were detected by immunoblotting.
Cancer Res, 2010. 70(22): p. […] Blood, 2011. 117(11): p. […] Biochem Pharmacol, 2011. 82(4): p. […] Blood, 2007. 109(8): p. 3470-8.

UCH-L1 = UCH-L1 (Homo sapiens, UniProt P09936); assay: Ub-AMC assay on purified DUB; format: biochemical; conditions: 5 μM
Procedure: (§1) Purified DUBs at optimal concentrations (USPS; 20 nM, UCH-L1; 20 nM, UCH-L3; 5 nM, USP9x; immunoprecipitated from 500 μg Z138 cell lysate) were incubated in DUB buffer containing WP1130, vehicle alone (DMSO) or 1 mM NEM (positive control for DUB inhibition) in a 100 μL reaction volume for 30 min. The reaction was initiated by the addition of 500 nM Ub-AMC and the release of AMC-fluorescence was recorded at ex/em 380/480 using a spectrofluorometer.
(§2) USP9x was immunoprecipitated from Z138 cell lysates, prepared in DUB buffer and the beads were incubated with vehicle alone or WP1130 for 30 min. Ub-AMC (500 nM) was added to each reaction and fluorescence was monitored every minute for up to 30 minutes. The maximum fluorescence observed at the end of the linear phase of substrate cleavage in control and WP1130 treated DUBs was used as a gauge to estimate DUB activity and % inhibition. Treatment with 5 μM WP1130 reduced the activities of USP9x, USP5 and UCH-L1 by 80% or more.

UCH-L3 = UCH-L3 (Homo sapiens, UniProt P15374); assay: Ub-AMC assay on purified DUB; format: biochemical
Procedure: as §1, §2

USP5 = biological target: T1, USP5 (Homo sapiens, UniProt P45974); assay: Ub-AMC assay on purified DUB; format: biochemical; conditions: 5 μM
T1 construct: endogenous in cells; host or cells: Z138
T1 sequence (P45974 1-858): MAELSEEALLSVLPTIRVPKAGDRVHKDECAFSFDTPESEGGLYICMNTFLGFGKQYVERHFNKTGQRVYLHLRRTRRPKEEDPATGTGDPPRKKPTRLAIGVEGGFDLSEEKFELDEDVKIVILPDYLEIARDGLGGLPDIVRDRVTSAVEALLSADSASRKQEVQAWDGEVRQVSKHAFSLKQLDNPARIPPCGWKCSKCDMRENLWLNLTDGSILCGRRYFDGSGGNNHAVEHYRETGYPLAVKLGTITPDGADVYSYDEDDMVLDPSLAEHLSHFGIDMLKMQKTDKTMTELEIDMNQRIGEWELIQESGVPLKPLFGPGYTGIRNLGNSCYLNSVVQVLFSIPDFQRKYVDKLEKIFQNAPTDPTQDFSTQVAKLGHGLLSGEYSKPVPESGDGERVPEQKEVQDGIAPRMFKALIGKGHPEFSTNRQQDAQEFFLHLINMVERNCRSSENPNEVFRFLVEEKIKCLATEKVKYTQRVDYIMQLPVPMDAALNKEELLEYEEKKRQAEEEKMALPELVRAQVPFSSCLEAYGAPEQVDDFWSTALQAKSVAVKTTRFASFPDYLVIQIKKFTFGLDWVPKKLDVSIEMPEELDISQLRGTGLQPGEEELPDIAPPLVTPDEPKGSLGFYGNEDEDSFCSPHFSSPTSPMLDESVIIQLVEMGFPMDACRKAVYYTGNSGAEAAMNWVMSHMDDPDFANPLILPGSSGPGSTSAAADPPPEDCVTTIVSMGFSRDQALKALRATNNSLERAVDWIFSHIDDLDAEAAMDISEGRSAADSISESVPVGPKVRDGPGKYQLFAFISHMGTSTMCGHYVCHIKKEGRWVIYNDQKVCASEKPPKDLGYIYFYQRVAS
Procedure: as §1, §2

20S proteasome = biological target: T2, 20S proteasome (Homo sapiens, UniProt P28074); assay: Proteasome activity assay in treated cells (Suc-LLVY-AMC); format: cell-based; conditions: 5 μM, 2 hr
T2 construct: endogenous in cells; host or cells: K562 and other CML lines, Z138
Procedure: Fluorogenic substrate Suc-LLVY-AMC was used to assay for the chymotryptic-like activity of the 20S proteasome. To assay for in vivo proteasome inhibition cells were treated with WP1130 (5 μM) or MG132 (5 μM) for 2 hours and lysed in ice-cold lysis buffer (50 mM HEPES, pH 7.5, 5 mM EDTA, 150 mM NaCl, 1% Triton X-100). Lysates were clarified by centrifugation at 20,000 RCF for 10 min and equal amounts of protein from each sample were incubated at 37° C. with 100 μM fluorogenic substrate. To assay for direct inhibition of the 20S proteasome in vitro, purified 20S human proteasome (200 ng) was incubated with WP1130 (5 μM), MG132 (5 μM) or Lactacystin (5 μM) for 30 min at 37° C. before addition of the substrates. Fluorescence intensity was measured using a spectrophotometer at excitation 360 nm & emission 460 nm. Assays were performed in triplicate, and statistical significance was determined with a paired Student's t test.

p53 = p53 immunoblot; format: cell-based; conditions: Z138 cells
Procedure: Whole cell lysates were prepared by boiling and sonicating the cell pellets in 1× Laemmli reducing sample buffer. To prepare detergent soluble and insoluble fractions, cells were lysed in cold isotonic lysis buffer [10 mM Tris-HCl (pH 7.5), 0.5% Triton X-100, 150 mM NaCl along with Mini-Complete and PhosSTOP] for 15 min on ice and centrifuged 10 minutes at 20,000 RCF. The clarified supernatant was used as a source of the detergent soluble cell fraction. The detergent insoluble fraction was extracted by the sonication of residual pellet in equal volumes of boiling 1× Laemmli reducing sample buffer. Equal volumes of cellular lysate or equal protein amounts were electrophoresed on SDS-PAGE gels.
An increase in p53 protein levels was observed upon WP1130 treatment. Co-treatment of Z138 cells with cycloheximide (50 μg/mL) and WP1130 confirmed the stabilization rather than induction of p53 protein. Furthermore, a rapid decline in MCL-1 levels upon WP1130 treatment was observed. To re-confirm the role played by USP9x and USP5 in regulating the levels of MCL-1 and p53 respectively, a siRNA based knockdown of USP9x and USP5 in HEK293T cells was performed.

[1] = test system: Encephalomyocarditis virus; assay: Encephalomyocarditis virus plaque assay; conditions: 5 μM, 30 min pre-treatment, listed as HWP1130

T2 sequence (P28074 60-263): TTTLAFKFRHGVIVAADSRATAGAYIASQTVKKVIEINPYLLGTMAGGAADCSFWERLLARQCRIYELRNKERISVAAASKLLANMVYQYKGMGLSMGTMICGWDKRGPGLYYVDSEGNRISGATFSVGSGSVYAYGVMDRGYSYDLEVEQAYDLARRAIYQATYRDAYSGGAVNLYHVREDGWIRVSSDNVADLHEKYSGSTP
UCH-L1, sequence (P09936 whole entry, species assumed): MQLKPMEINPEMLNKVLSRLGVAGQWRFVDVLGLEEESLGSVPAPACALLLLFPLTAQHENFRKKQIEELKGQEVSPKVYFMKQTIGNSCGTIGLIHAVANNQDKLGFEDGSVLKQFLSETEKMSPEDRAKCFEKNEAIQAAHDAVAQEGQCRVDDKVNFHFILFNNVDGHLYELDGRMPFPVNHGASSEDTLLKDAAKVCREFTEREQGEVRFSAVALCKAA
UCH-L3, sequence (P15374 whole entry, species assumed): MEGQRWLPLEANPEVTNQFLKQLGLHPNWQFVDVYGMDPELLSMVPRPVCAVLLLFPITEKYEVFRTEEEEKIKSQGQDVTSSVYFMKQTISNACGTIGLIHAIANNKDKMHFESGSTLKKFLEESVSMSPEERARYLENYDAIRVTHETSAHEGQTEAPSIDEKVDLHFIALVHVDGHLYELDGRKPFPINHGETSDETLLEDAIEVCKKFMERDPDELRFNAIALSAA

`CCC[C@H](NC(=O)/C(C#N)=C/c1cccc(Br)n1)c1ccccc1` [WP1130] was tested, and the “phosphorylation of Stat5” value (pStat5) was “loss of phosphorylation of Stat5”, the “reduction of UCH-L1 activity” value (UCH-L1) was no less than 80% and the “inhibition of UCH-L3 activity” value (UCH-L3) was “No inhibition”. For the same compound, the “reduction of USP5 activity” value (USP5) was no less than 80%, the “20S proteasome chymotryptic-like activity in intact cells (in vivo)” value (20S proteasome) was “did not suppress; also recorded: no significant decline” and the p53 protein levels (p53) was “increase”. The “Log inhibition by plaque assay” value [1] was 2 log.
